Reference: PubChem BioAssay AID1918941 (Molecular Pharmacology Branch, DTP, NCI, 2023)

Test system: SW 1271 complex spheroids, viability
Experiment: Anticancer human tumor SW 1271 cell line growth inhibition [LSD1];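 further: spheroids exposed to agents for 7 days before luminescence read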;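 on viability, T/C: 100% = DMSO vehicle control viability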
Conditions: for IC50: curve of first compound; for viability, T/C: stronger effect = lower value
Summary of the method: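 Drug combinations with the LSD1 inhibitor iadademstat tested on tumor cells co-cultured as spheroids with endothelial cells and mesenchymal stem cells. Concentrations descended in half-log increments from clinical Cmax or 10 microM.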

[1] = second compound 0.1 µM, first compound 0.00949 µM
[2] = second compound 0.1 µM, first compound 0.03 µM
[3] = second compound 0.1 µM, first compound 0.0949 µM
[4] = second compound 0.1 µM, first compound 0.3 µM
[5] = second compound 0.1 µM, first compound 0.949 µM
[6] = second compound 0.1 µM, first compound 3 µM
[7] = second compound 0.316 µM, first compound 0.00949 µM
[8] = second compound 0.316 µM, first compound 0.03 µM
[9] = second compound 0.316 µM, first compound 0.0949 µM
[10] = second compound 0.316 µM, first compound 0.3 µM
[11] = second compound 0.316 µM, first compound 0.949 µM
[12] = second compound 0.316 µM, first compound 3 µM
[13] = second compound 1 µM, first compound 0.00949 µM
[14] = second compound 1 µM, first compound 0.03 µM
[15] = second compound 1 µM, first compound 0.0949 µM
[16] = second compound 1 µM, first compound 0.3 µM
[17] = second compound 1 µM, first compound 0.949 µM
[18] = second compound 1 µM, first compound 3 µM
[19] = second compound 3.16 µM, first compound 0.00949 µM
[20] = second compound 3.16 µM, first compound 0.03 µM
[21] = second compound 3.16 µM, first compound 0.0949 µM
[22] = second compound 3.16 µM, first compound 0.3 µM
[23] = second compound 3.16 µM, first compound 0.949 µM
[24] = second compound 3.16 µM, first compound 3 µM
[25] = second compound 10 µM, first compound 0.00949 µM
[26] = second compound 10 µM, first compound 0.03 µM
[27] = second compound 10 µM, first compound 0.0949 µM
[28] = second compound 10 µM, first compound 0.3 µM
[29] = second compound 10 µM, first compound 0.949 µM
[30] = second compound 10 µM, first compound 3 µM

SMILES	IC50 (second compound 0.1 µM) [nM]	IC50 (second compound 0.316 µM) [nM]	IC50 (second compound 1 µM) [nM]	IC50 (second compound 3.16 µM) [nM]	IC50 (second compound 10 µM) [nM]	viability, T/C [1] [%]	viability, T/C [2] [%]	viability, T/C [3] [%]	viability, T/C [4] [%]	viability, T/C [5] [%]	viability, T/C [6] [%]	viability, T/C [7] [%]	viability, T/C [8] [%]	viability, T/C [9] [%]	viability, T/C [10] [%]	viability, T/C [11] [%]	viability, T/C [12] [%]	viability, T/C [13] [%]	viability, T/C [14] [%]	viability, T/C [15] [%]	also measured
NS(=O)(=O)OCC1CC(n2ccc3c(NC4CCc5ccccc54)ncnc32)CC1O (stereo not given) + NC1CC1c1ccc(-c2cccc(O)c2)cc1	> 3000	> 3000	> 3000	> 3000	> 3000	151	123	103	86	85.5	88.5	166	112	94.5	82.3	82.1	79.9	148	110	95.9	viability, T/C [16]: 75.8%; viability, T/C [17]: 85.9%; viability, T/C [18]: 79%; viability, T/C [19]: 144%; viability, T/C [20]: 101%; viability, T/C [21]: 99.9%; viability, T/C [22]: 85.5%; viability, T/C [23]: 75.6%; viability, T/C [24]: 83.9%; viability, T/C [25]: 141%; viability, T/C [26]: 116%; viability, T/C [27]: 115%; viability, T/C [28]: 101%; viability, T/C [29]: 87.3%; viability, T/C [30]: 91.1%
Nc1ccccc1NC(=O)c1ccc(CNC(=O)OCc2cccnc2)cc1 + NC1CC1c1ccc(-c2cccc(O)c2)cc1	106	120	62.6	76.2	38.1	85.6	65.7	56.7	29.6	8.17	3.78	89.2	75.3	57.3	27.7	6.71	4.39	94.3	59.9	46.6	viability, T/C [16]: 26.6%; viability, T/C [17]: 7.28%; viability, T/C [18]: 5.61%; viability, T/C [19]: 81.3%; viability, T/C [20]: 69.7%; viability, T/C [21]: 40.5%; viability, T/C [22]: 32.4%; viability, T/C [23]: 10%; viability, T/C [24]: 4.69%; viability, T/C [25]: 66.7%; viability, T/C [26]: 51.9%; viability, T/C [27]: 38.6%; viability, T/C [28]: 29.4%; viability, T/C [29]: 11.7%; viability, T/C [30]: 6.45%
O=C(C=Cc1cccc(S(=O)(=O)Nc2ccccc2)c1)NO + NC1CC1c1ccc(-c2cccc(O)c2)cc1	98.2	62.9	55.3	60	68.1	74.5	69	51.8	17.9	7.5	0.27	70.3	61.8	44	17.4	6.95	0.16	75.7	60.1	41.8	viability, T/C [16]: 14.3%; viability, T/C [17]: 6.33%; viability, T/C [18]: 0.7%; viability, T/C [19]: 72.7%; viability, T/C [20]: 58.4%; viability, T/C [21]: 45.6%; viability, T/C [22]: 14.1%; viability, T/C [23]: 6.89%; viability, T/C [24]: 0.2%; viability, T/C [25]: 67.1%; viability, T/C [26]: 59.9%; viability, T/C [27]: 46.5%; viability, T/C [28]: 17.6%; viability, T/C [29]: 5.74%; viability, T/C [30]: 0.36%
